# Results published in patent publication US20250332178A1, “METHODS OF TREATING MYCOBACTERIAL INFECTIONS USING TETRACYCLINE COMPOUNDS” (priority 2018, published 2025).
# How the values were obtained:
# Mycobacterium abscessus = assay: MIC by broth microdilution in CAMHB, clinical isolates; assay type: cell-based
# Experimental: (§1) A total of 24 clinical isolates of Mycobacterium abscessus, 22 clinical isolates of Mycobacterium chelonae and 20 clinical isolates of Mycobacterium fortuitum were tested in the study. The study also used the antibiotics tigecycline, doxycycline and amikacin for comparison purposes. […] Amikacin was dissolved in DMSO prior to freezing at −20° C. For susceptibility testing, stock solutions of antibiotic compounds were serially diluted in 50 μL of cation adjusted Mueller-Hinton broth (CAMHB) in polystryrene 96-well round-bottom microtiter plates. To each well, 50 μL of the appropriate mycobacterial cell suspension was added to yield a final concentration of about 1×10^5 CFU/mL. The inoculum used for each isolate was measured by titration in saline with Tween 80 and plating on MH agar. The Mycobacterium abscessus and Mycobacterium fortuitum titer plates were incubated at 37° C. in ambient air for 3-4 days and 5-7 days, respectively. The Mycobacterium chelonae titer plates were incubated at 30° C. in ambient air for 3-5 days. Each isolate was tested at least in duplicate. The MIC was defined as the lowest concentration of antimicrobial agent yielding no visible turbidity.
# Mycobacterium chelonae = assay: as above; assay type: cell-based
# Experimental: as §1
# Mycobacterium fortuitum = assay: as above; assay type: cell-based
# Experimental: as §1
# [1] = test system: rapid-growing mycobacteria (RGM) isolates; assay: MIC (CLSI broth dilution), all RGM isolates; assay type: cell-based, nontuberculous mycobacteria; details: all 50 RGM isolates
# M. abscessus complex = assay: MIC (CLSI broth dilution), RGM isolates; assay type: cell-based
# M. chelonae = assay: MIC (CLSI broth dilution), RGM isolates; assay type: cell-based
# M. fortuitum group = assay: MIC (CLSI broth dilution), RGM isolates; assay type: cell-based
# M. immunogenum group = assay: MIC (CLSI broth dilution), RGM isolates; assay type: cell-based; details: M. immunogenum
# M. mucogenium group = assay: MIC (CLSI broth dilution), RGM isolates; assay type: cell-based
# M. smegmatis group = assay: MIC (CLSI broth dilution), RGM isolates; assay type: cell-based
# [2] = 24 clinical isolates (tigecycline: subset N=14)
structure (smiles),measurement,setting,value
"C[C@H]1c2cccc(O)c2C(=O)C2=C(O)[C@]3(O)C(=O)C(C(N)=O)=C(O)[C@@H](N(C)C)[C@@H]3[C@@H](O)[C@@H]21 [Doxycycline, doxycycline]",MIC50,Mycobacterium abscessus; [2],>64 µg/mL
same,MIC90,Mycobacterium abscessus; [2],>64 µg/mL
same,MIC,"Mycobacterium abscessus; isolate No. 1, BB2",>64 µg/mL
same,MIC,"Mycobacterium abscessus; isolate No. 2, BB4",2 µg/mL
same,MIC,"Mycobacterium abscessus; isolate No. 3, 5922",16 µg/mL
same,MIC,"Mycobacterium abscessus; isolate No. 4, BB3",4 µg/mL
same,MIC,"Mycobacterium abscessus; isolate No. 5, BB6",16 µg/mL
same,MIC,"Mycobacterium abscessus; isolate No. 6, 5908",>64 µg/mL
same,MIC,"Mycobacterium abscessus; isolate No. 7, BB7",0.25 µg/mL
same,MIC,"Mycobacterium abscessus; isolate No. 8, 6031",2 µg/mL
same,MIC,"Mycobacterium abscessus; isolate No. 9, 5785",2 µg/mL
same,MIC,"Mycobacterium abscessus; isolate No. 10, BB8",>64 µg/mL
same,MIC,"Mycobacterium abscessus; isolate No. 11, 6111",>64 µg/mL
same,MIC,"Mycobacterium abscessus; isolate No. 12, 6005",>64 µg/mL
same,MIC,"Mycobacterium abscessus; isolate No. 13, 5605",>64 µg/mL
same,MIC,"Mycobacterium abscessus; isolate No. 14, 5931",16 µg/mL
same,MIC,"Mycobacterium abscessus; isolate No. 15, BB1",>64 µg/mL
same,MIC,"Mycobacterium abscessus; isolate No. 16, BB5",>64 µg/mL
same,MIC,"Mycobacterium abscessus; isolate No. 17, 5812",>64 µg/mL
same,MIC,"Mycobacterium abscessus; isolate No. 18, 5901",>64 µg/mL
same,MIC,"Mycobacterium abscessus; isolate No. 19, 5960",8 µg/mL
same,MIC,"Mycobacterium abscessus; isolate No. 20, 6142",>64 µg/mL
same,MIC,"Mycobacterium abscessus; isolate No. 21, 5922",32 µg/mL
same,MIC,"Mycobacterium abscessus; isolate No. 22, LT 949",>64 µg/mL
same,MIC,"Mycobacterium abscessus; isolate No. 23, 6025",>64 µg/mL
same,MIC,"Mycobacterium abscessus; isolate No. 24, 6153",>64 µg/mL
same,MIC50,Mycobacterium chelonae; 22 clinical isolates,32 µg/mL
same,MIC90,Mycobacterium chelonae; 22 clinical isolates,64 µg/mL
same,MIC,"Mycobacterium chelonae; isolate No. 1, MC 7323",64 µg/mL
same,MIC,"Mycobacterium chelonae; isolate No. 2, MC 7534",32 µg/mL
same,MIC,"Mycobacterium chelonae; isolate No. 3, MC 7368",64 µg/mL
same,MIC,"Mycobacterium chelonae; isolate No. 4, MC 7514",32 µg/mL
same,MIC,"Mycobacterium chelonae; isolate No. 5, MC 7584",64 µg/mL
same,MIC,"Mycobacterium chelonae; isolate No. 6, MC 7192",16 µg/mL
same,MIC,"Mycobacterium chelonae; isolate No. 7, MC 7466",32 µg/mL
same,MIC,"Mycobacterium chelonae; isolate No. 8, MC 7533",64 µg/mL
same,MIC,"Mycobacterium chelonae; isolate No. 9, MC 7579",16 µg/mL
same,MIC,"Mycobacterium chelonae; isolate No. 10, MC 7614",64 µg/mL
same,MIC,"Mycobacterium chelonae; isolate No. 11, MC 7414",32 µg/mL
same,MIC,"Mycobacterium chelonae; isolate No. 12, MC 7313",32 µg/mL
same,MIC,"Mycobacterium chelonae; isolate No. 13, MC 7281",64 µg/mL
same,MIC,"Mycobacterium chelonae; isolate No. 14, MC 7328",16 µg/mL
same,MIC,"Mycobacterium chelonae; isolate No. 15, MC 7294",32 µg/mL
same,MIC,"Mycobacterium chelonae; isolate No. 16, MC 14-S-03",64 µg/mL
same,MIC,"Mycobacterium chelonae; isolate No. 17, MC 14-S-04",32 µg/mL
same,MIC,"Mycobacterium chelonae; isolate No. 18, MC 14-S-05",32 µg/mL
same,MIC,"Mycobacterium chelonae; isolate No. 19, MC 14-S-06",64 µg/mL
same,MIC,"Mycobacterium chelonae; isolate No. 20, MC 14-S-07",32 µg/mL
same,MIC,"Mycobacterium chelonae; isolate No. 21, MC 35757",32 µg/mL
same,MIC,"Mycobacterium chelonae; isolate No. 22, MC 7302",64 µg/mL
same,MIC50,Mycobacterium fortuitum; 20 clinical isolates,8 µg/mL
same,MIC90,Mycobacterium fortuitum; 20 clinical isolates,64 µg/mL
same,MIC,"Mycobacterium fortuitum; isolate No. 1, 3349",16 µg/mL
same,MIC,"Mycobacterium fortuitum; isolate No. 2, 3499",0.06 µg/mL
same,MIC,"Mycobacterium fortuitum; isolate No. 3, 2797",>64 µg/mL
same,MIC,"Mycobacterium fortuitum; isolate No. 4, 32",0.125 µg/mL
same,MIC,"Mycobacterium fortuitum; isolate No. 5, 33",0.125 µg/mL
same,MIC,"Mycobacterium fortuitum; isolate No. 6, 3489",8 µg/mL
same,MIC,"Mycobacterium fortuitum; isolate No. 7, 3491",<0.06 µg/mL
same,MIC,"Mycobacterium fortuitum; isolate No. 8, 54",<0.06 µg/mL
same,MIC,"Mycobacterium fortuitum; isolate No. 9, 38",0.5 µg/mL
same,MIC,"Mycobacterium fortuitum; isolate No. 10, 36",0.125 µg/mL
same,MIC,"Mycobacterium fortuitum; isolate No. 11, 3480",16 µg/mL
same,MIC,"Mycobacterium fortuitum; isolate No. 12, 3126",16 µg/mL
same,MIC,"Mycobacterium fortuitum; isolate No. 13, 3579",16 µg/mL
same,MIC,"Mycobacterium fortuitum; isolate No. 14, 7484",64 µg/mL
same,MIC,"Mycobacterium fortuitum; isolate No. 15, 3488",32 µg/mL
same,MIC,"Mycobacterium fortuitum; isolate No. 16, 3276",0.25 µg/mL
same,MIC,"Mycobacterium fortuitum; isolate No. 17, 3442",0.25 µg/mL
same,MIC,"Mycobacterium fortuitum; isolate No. 18, 3316",32 µg/mL
same,MIC,"Mycobacterium fortuitum; isolate No. 19, 3490",16 µg/mL
same,MIC,"Mycobacterium fortuitum; isolate No. 20, 2491",>64 µg/mL
same,MIC50,[1],>8 µg/mL
same,MIC90,[1],>8 µg/mL
same,MIC,"M. abscessus complex; isolate 1, M. abscessus complex, erm gene type MAB30",>8 µg/mL
same,MIC,"M. abscessus complex; isolate 2, M. abscessus complex, erm gene type MAB30",>8 µg/mL
same,MIC,"M. abscessus complex; isolate 3, M. abscessus complex, erm gene type MAB30",>8 µg/mL
same,MIC,"M. abscessus complex; isolate 4, M. abscessus complex, erm gene type massiliense",>8 µg/mL
same,MIC,"M. abscessus complex; isolate 5, M. abscessus complex, erm gene type massiliense/subsp. abs hybrid",>8 µg/mL
same,MIC,"M. abscessus complex; isolate 6, M. abscessus complex, erm gene type Type 1 abscessus",>8 µg/mL
same,MIC,"M. abscessus complex; isolate 7, M. abscessus complex, erm gene type Type 1 abscessus",>8 µg/mL
same,MIC,"M. abscessus complex; isolate 8, M. abscessus complex, erm gene type Type 1 abscessus",>8 µg/mL
same,MIC,"M. abscessus complex; isolate 9, M. abscessus complex, erm gene type Type 1 abscessus",>8 µg/mL
same,MIC,"M. abscessus complex; isolate 10, M. abscessus complex, erm gene type Type 1 abscessus",>8 µg/mL
same,MIC,"M. abscessus complex; isolate 11, M. abscessus complex, erm gene type Type 6 abscessus",>8 µg/mL
same,MIC,"M. abscessus complex; isolate 12, M. abscessus complex, erm gene type Type 6 abscessus",>8 µg/mL
same,MIC,"M. abscessus complex; isolate 13, M. abscessus complex, erm gene type Type 6 abscessus",>8 µg/mL
same,MIC,"M. abscessus complex; isolate 14, M. abscessus complex, erm gene type Type 6 abscessus",8 µg/mL
same,MIC,"M. abscessus complex; isolate 15, M. abscessus complex, erm gene type Type 7 abscessus",>8 µg/mL
same,MIC,"M. abscessus complex; isolate 16, M. abscessus complex, erm gene type Type 7 abscessus",>8 µg/mL
same,MIC,"M. abscessus complex; isolate 17, M. abscessus complex, erm gene type Type 8 abscessus",>8 µg/mL
same,MIC,"M. chelonae; isolate 18, M. chelonae",>8 µg/mL
same,MIC,"M. chelonae; isolate 19, M. chelonae",>8 µg/mL
same,MIC,"M. chelonae; isolate 20, M. chelonae",>8 µg/mL
same,MIC,"M. chelonae; isolate 21, M. chelonae",>8 µg/mL
same,MIC,"M. chelonae; isolate 22, M. chelonae",>8 µg/mL
same,MIC,"M. fortuitum group; isolate 23, M. fortuitum group, M. fortuitum",≤0.12 µg/mL
same,MIC,"M. fortuitum group; isolate 24, M. fortuitum group, M. fortuitum",0.25 µg/mL
same,MIC,"M. fortuitum group; isolate 25, M. fortuitum group, M. fortuitum",>8 µg/mL
same,MIC,"M. fortuitum group; isolate 26, M. fortuitum group, M. porcinum",4 µg/mL
same,MIC,"M. fortuitum group; isolate 27, M. fortuitum group, M. porcinum",8 µg/mL
same,MIC,"M. fortuitum group; isolate 28, M. fortuitum group, M. porcinum/M. boenickei",2 µg/mL
same,MIC,"M. fortuitum group; isolate 29, M. fortuitum group, M. porcinum/M. boenickei",>8 µg/mL
same,MIC,"M. fortuitum group; isolate 30, M. fortuitum group, M. porcinum/M. boenickei",>8 µg/mL
same,MIC,"M. fortuitum group; isolate 31, M. fortuitum group, M. senegalense",≤0.12 µg/mL
same,MIC,"M. fortuitum group; isolate 32, M. fortuitum group, M. senegalense",≤0.12 µg/mL
same,MIC,"M. fortuitum group; isolate 33, M. fortuitum group, M. senegalense",≤0.12 µg/mL
same,MIC,"M. fortuitum group; isolate 34, M. fortuitum group, M. senegalense",≤0.12 µg/mL
same,MIC,"M. immunogenum group; isolate 35, M. immunogenum group",>8 µg/mL
same,MIC,"M. immunogenum group; isolate 36, M. immunogenum group",1 µg/mL
same,MIC,"M. immunogenum group; isolate 37, M. immunogenum group",>8 µg/mL
same,MIC,"M. immunogenum group; isolate 38, M. immunogenum group",>8 µg/mL
same,MIC,"M. mucogenium group; isolate 39, M. mucogenicum group, M. mucogenicum",0.25 µg/mL
same,MIC,"M. mucogenium group; isolate 40, M. mucogenicum group, M. mucogenicum",≤0.12 µg/mL
same,MIC,"M. mucogenium group; isolate 41, M. mucogenicum group, M. mucogenicum",≤0.12 µg/mL
same,MIC,"M. mucogenium group; isolate 42, M. mucogenicum group, M. mucogenicum",≤0.12 µg/mL
same,MIC,"M. mucogenium group; isolate 43, M. mucogenicum group, M. phocaicum",≤0.12 µg/mL
same,MIC,"M. mucogenium group; isolate 44, M. mucogenicum group, M. phocaicum",>8 µg/mL
same,MIC,"M. mucogenium group; isolate 45, M. mucogenicum group, M. phocaicum",>8 µg/mL
same,MIC,"M. mucogenium group; isolate 46, M. mucogenicum group, M. phocaicum",>8 µg/mL
same,MIC,"M. mucogenium group; isolate 47, M. mucogenicum group, M. phocaicum",0.25 µg/mL
same,MIC,"M. mucogenium group; isolate 48, M. mucogenicum group, M. phocaicum",4 µg/mL
same,MIC,"M. smegmatis group; isolate 49, M. smegmatis group, M. goodii",≤0.12 µg/mL
same,MIC,"M. smegmatis group; isolate 50, M. smegmatis group, M. wolinskyi",1 µg/mL
